Seven compounds from US4701521A, “Method of effecting cellular uptake of molecules” (The Trustees of Boston University, priority 1979, dated 1987) can be followed below.

Read-outs that look alike come from different tables or passages of the source.

The test system of one test is L-929 fibroblasts. The test can be described thus: Cytocidal effects of 6-MPRP and 6-MPRP-PLL. Format: cell-based, mouse. The text has this: […] After exposure to the free or conjugated drug, the monolayers were kept growing for 2 days in standard growth medium, at which time no cytocidal effect could be detected.
Another test deals with L929 fibroblast cells. Nature of the test: Cellular uptake of HRP and conjugates as cell-associated peroxidase activity. Type of test: cell-based, mouse. The text has this: The rate of color development measured at 460 nm (ΔA460 nm /min) was used as an indication of enzymatic activity, and the enzymatic activity measured in the cell extract was used as an expression of cellular uptake.
Following exposure to HRP, or one of its two conjugates, the monolayers of L 929 mouse fibroblasts were washed and detached and the detached cells were washed as described in Example 3. The cells were then lysed and the cell extract used for measurement of enzymatic activity of HRP as described in Example 6.

The test system of a further test is L929 fibroblasts. Nature of the test: Cytochemical localization of HRP reaction product (light and electron microscopy). Type of test: cell-based, mouse.
The subject of test [1] is BHK (DMN^ts) baby hamster kidney cell line. The following applies: for Cellular Uptake in 60 min.: 3 μg/ml. As to the method:
This experiment was done with a baby hamster kidney cell line (BHK) transformed by exposure to dimethylnitrosamine (DMN), growing with a non-malignant phenotype at 32° C. and a malignant phenotype at 38.5° C. This temperature-sensitive mutant line, called BHK (DMN^ts) was described by G. DeMayorca et al. Proc. Natl. Acad. Sci U.S.A., 70, 46-49 (1973). The cells were grown as monolayers in Dulbecco's high glucose medium. The transition from normal to transformed phenotype requires 3 to 4 population doublings or approximately 56 hours of growth at 38.5° C. The reversion to the normal, non-malignant phenotype likewise require 3 to 4 population doublings or approximately 112 hours of growth at 32° C. […] At time 0, the growth media of the confluent monolayers were replaced by serum free medium prewarmed to 37° C. and containing 3 μg/ml radioiodinated polymer. The monolayers were then incubated for 60 min. at 37° C.

A further test has as its system Sarcoma S-180 monolayers. The following applies: for Uptake, 1-min / Uptake, 60-min: 3 μg/ml ^125 I-PLL, 37° C.; for Uptake, 60-min (Corrected for Concentration of 79 nM): assuming uptake linear with concentration. The text has this: Poly-L-lysines of three different average molecular weights, i.e., 38,000, 115,000 and 230,000, were radio-iodinated using the Bolton-Hunter Reagent. See Bolton, A. E. and Hunter, W. M., Biochem J., 133, pp 529-38 (1973).

The subject of test [2] is variant of the P 1798 lymphosarcoma, steroid-resistant, presumed MTX-sensitive. Nature of the test: Antitumor effect (tumor weight), steroid-resistant variant. Type of test: in vivo, BALB/c mice. The following applies: for Mean Tumor Weight: Mean ± SEM. The text has this:
The inoculation developed into a palpable tumor within 7-8 days and killed the animal on the average within 14 days. Following inoculation, mice were divided into 4 groups of 4 or 5 mice.
Treatment consisted of one daily intravenous injection for 4 consecutive days, and was begun on Day 11 and Day 12 post-inoculation in experiment number 1 and 2 respectively. All animals were sacrificed one day after the last injection.

The mark [3] stands for this setting: Normal phenotype, PLL MW 125,000, PDL MW 130,000.

In the case of `O=P(O)(O)OC[C@H]1O[C@@H](n2cnc3c(=S)[nH]cnc32)[C@H](O)[C@@H]1O` [6-MPRP, 6-mercaptopurine ribosylphosphate], the “growth inhibition, drug present for the duration of the experiment” value with L-929 fibroblasts (2×10^-6 M) was “both compounds had inhibiting effects”. Also, the “cell growth after subculture and 7 additional days” value with L-929 fibroblasts (1 h exposure to combination of free 6-MPRP (1×10^-5 M) and free PLL) is reported as “grew at a rate undistinguichable from that of controls”.
horseradish peroxidase [HRP]: the Cell-associated peroxidase activity with L929 fibroblast cells (Example 6, enzyme concentration in medium 150 μg/ml) is reported as 0.14 ΔA460 nm /min/mg cell protein; in the test on L929 fibroblast cells (Example 6, enzyme concentration in medium 1500 μg/ml) it was 1.55 ΔA460 nm /min/mg cell protein; in the test on L929 fibroblast cells (Example 10, 60-minute exposure, 1.5 μg/ml in medium), 0 ΔA460 nm /min/mg cell protein; in the test on L929 fibroblast cells (Example 10, 60-minute exposure, 15 μg/ml in medium), 0 ΔA460 nm /min/mg cell protein. Further, the “staining of HRP reaction products, light microscopy” value in the test on L929 fibroblasts (60' exposure, HRP 150 μg/ml, HRP-PLL 1.5, 5 and 15 μg/ml) is reported as “minimal staining”. For the same compound, the “HRP reaction product, electron microscopy” value in the test on L929 fibroblasts (HRP at 100-time greater concentration than HRP-PLL) is “minimal amounts of stained reaction product”.
poly-D-lysine [PDL]: in test [1], the “Transformed/Normal (uptake ratio)” value amounted to 1. The “Cellular Uptake in 60 min.” value is 685 ng/mg cell protein in test [1] (setting [3]) and 680 ng/mg cell protein in test [1] (Transformed phenotype).
With poly-L-lysine [PLL (MW 38,000)], in the test on Sarcoma S-180 monolayers, the “Uptake, 1-min” value is recorded as 18.8 ng/mg cell protein; the “Uptake, 60-min” value is reported as 349.4 ng/mg cell protein; the “Uptake, 60-min (Corrected for Concentration of 79 nM)” value came out at 349 ng/mg cell protein.
With poly-L-lysine [PLL (MW 115,000)], in the test on Sarcoma S-180 monolayers, the “Uptake, 1-min” value is 112.3 ng/mg cell protein; the “Uptake, 60-min” value is on record as 513.3 ng/mg cell protein; the “Uptake, 60-min (Corrected for Concentration of 79 nM)” value was 1717 ng/mg cell protein.
The like results for poly-L-lysine [PLL (MW 250,000)] were, in that order, 153.7 ng/mg cell protein, 695.4 ng/mg cell protein and 4209 ng/mg cell protein.
For the compound poly-L-lysine [PLL], the “% of Controls (tumor weight)” value is listed as 113% in test [2] (Experiment No. 1) and 102% in test [2] (Experiment No. 2). Moreover, the “Mean Tumor Weight” value in test [2] (Experiment No. 1, daily i.v. 4 days from Day 11) was 6.05 ± 0.52 g; in test [2] (Experiment No. 2, daily i.v. 4 days from Day 12), 6.13 ± 0.31 g. Further, the “Transformed/Normal (uptake ratio)” value in test [1] was determined as 1.43. Further, the “Cellular Uptake in 60 min.” value in test [1] (setting [3]) is 525 ng/mg cell protein; in test [1] (Transformed phenotype), 750 ng/mg cell protein.
